Results published in patent US9592221B2, “Antibacterial agents: aryl myxopyronin derivatives” (priority 2012, dated 2017).
pIC50: −log10 of the molar value.

What was measured:
[1] = test system: Escherichia coli D21f2tolC; assay: MIC, spiral gradient endpoint assay, E. coli D21f2tolC; type: cell-based; conditions: Escherichia coli, D21F2TOLC, read-out: MIC E. coli D21f2toIC
[2] = test system: Burkholderia pseudomallei Human/Blood/OH/US/1994; assay: microbe, parasite or virus in culture; type: cell-based; conditions: Burkholderia pseudomallei, read-out: MIC B. pseudomallei Human/Blood/OH
[3] = test system: Francisella tularensis SCHU4; assay: microbe, parasite or virus in culture; type: cell-based; conditions: Francisella tularensis, SCHU4, read-out: MIC F. tularensis SCHU4
[4] = molecular target: E. coli RNA polymerase σ^70 holoenzyme (Escherichia coli, UniProt P0A8T7+P0A8V2); assay: Fluorescence-detected RNA polymerase assay, E. coli RNA polymerase; type: biochemical; conditions: read-out: IC50 E. coli RNAP
[5] = test system: Brucella melitensis 16M; assay: microbe, parasite or virus in culture; type: cell-based; conditions: Brucella melitensis, 16M, read-out: MIC B. melitensis 16M
[6] = test system: Bacillus anthracis Vollum 1b; assay: microbe, parasite or virus in culture; type: cell-based; conditions: Bacillus anthracis, VOLLUM1B, read-out: MIC B. anthracis Vollum-1b
[7] = test system: Burkholderia mallei CHN7; assay: microbe, parasite or virus in culture; type: cell-based; conditions: Burkholderia mallei, CHN7, read-out: MIC B. mallei CHN7
[8] = test system: Acinetobacter baumannii ATCC 19606; assay: MIC, spiral gradient endpoint assay, A. baumannii; type: cell-based; conditions: ATCC19606; Acinetobacter baumannii ATCC 19606
[9] = test system: methicillin-resistant Staphylococcus aureus (MRSA) strain BAA-1717 (USA-300); assay: MIC, spiral gradient endpoint assay, MRSA BAA-1717; type: cell-based; conditions: Staphylococcus aureus; read-out: MIC S. aureus MRSA BAA-1717
[10] = test system: Mycobacterium tuberculosis H37Rv; assay: MIC, microplate Alamar Blue assay, M. tuberculosis; type: cell-based
[11] = test system: Yersinia pestis C092; assay: microbe, parasite or virus in culture; type: cell-based; conditions: Yersinia pestis, C092, read-out: MIC Y. pestis C092
[12] = test system: Staphylococcus aureus ATCC 12600; assay: MIC, spiral gradient endpoint assay, S. aureus ATCC 12600; type: cell-based; conditions: ATCC12600; Staphylococcus aureus ATCC 12600
[13] = test system: rifampin-resistant Staphylococcus aureus (RRSA) strain ATCC 12600-Rif (H526N); assay: MIC, spiral gradient endpoint assay, RRSA 12600-Rif; type: cell-based; conditions: Staphylococcus aureus, ATCC12600; read-out: MIC S. aureus RRSA 12600-Rif
[14] = test system: methicillin-resistant Staphylococcus aureus (MRSA) strain BAA-1707 (USA-400; MW2); assay: MIC, spiral gradient endpoint assay, MRSA BAA-1707; type: cell-based; conditions: Staphylococcus aureus; read-out: MIC S. aureus MRSA BAA-1707
[15] = test system: methicillin-resistant Staphylococcus aureus (MRSA) strain BAA-1707 (USA-400, MW2); assay: Antibacterial efficacy in mouse model of Staphylococcus aureus systemic infection (peritonitis model); type: in vivo, Swiss Webster mice; conditions: mice
[16] = molecular target: S. aureus RNA polymerase core enzyme, S. aureus σ^A (Staphylococcus aureus, UniProt P47768+Q2G0N5); assay: Fluorescence-detected RNA polymerase assay, S. aureus RNA polymerase; type: biochemical; conditions: read-out: IC50 S. aureus RNAP
[17] = molecular target: M. tuberculosis RNA polymerase core enzyme, M. tuberculosis σ^A (Mycobacterium tuberculosis, UniProt P9WGY7+P9WGY9); assay: Fluorescence-detected RNA polymerase assay, M. tuberculosis RNA polymerase; type: biochemical; conditions: read-out: IC50 M. tuberculosis RNAP
[18] = test system: linezolid-resistant Staphylococcus aureus (LRSA) strain NRS 120; assay: MIC, spiral gradient endpoint assay, LRSA NRS 120; type: cell-based; conditions: Staphylococcus aureus, NRS120; read-out: MIC S. aureus LRSA NRS120
[19] = test system: vancomycin-intermediate Staphylococcus aureus (VISA) strain NRS 1; assay: MIC, spiral gradient endpoint assay, VISA NRS 1; type: cell-based; conditions: Staphylococcus aureus; read-out: MIC S. aureus VISA NRS1
[20] = intravenous administration 0 h post-infection

E. coli RNA polymerase σ^70 holoenzyme, sequence (P0A8T7 whole entry): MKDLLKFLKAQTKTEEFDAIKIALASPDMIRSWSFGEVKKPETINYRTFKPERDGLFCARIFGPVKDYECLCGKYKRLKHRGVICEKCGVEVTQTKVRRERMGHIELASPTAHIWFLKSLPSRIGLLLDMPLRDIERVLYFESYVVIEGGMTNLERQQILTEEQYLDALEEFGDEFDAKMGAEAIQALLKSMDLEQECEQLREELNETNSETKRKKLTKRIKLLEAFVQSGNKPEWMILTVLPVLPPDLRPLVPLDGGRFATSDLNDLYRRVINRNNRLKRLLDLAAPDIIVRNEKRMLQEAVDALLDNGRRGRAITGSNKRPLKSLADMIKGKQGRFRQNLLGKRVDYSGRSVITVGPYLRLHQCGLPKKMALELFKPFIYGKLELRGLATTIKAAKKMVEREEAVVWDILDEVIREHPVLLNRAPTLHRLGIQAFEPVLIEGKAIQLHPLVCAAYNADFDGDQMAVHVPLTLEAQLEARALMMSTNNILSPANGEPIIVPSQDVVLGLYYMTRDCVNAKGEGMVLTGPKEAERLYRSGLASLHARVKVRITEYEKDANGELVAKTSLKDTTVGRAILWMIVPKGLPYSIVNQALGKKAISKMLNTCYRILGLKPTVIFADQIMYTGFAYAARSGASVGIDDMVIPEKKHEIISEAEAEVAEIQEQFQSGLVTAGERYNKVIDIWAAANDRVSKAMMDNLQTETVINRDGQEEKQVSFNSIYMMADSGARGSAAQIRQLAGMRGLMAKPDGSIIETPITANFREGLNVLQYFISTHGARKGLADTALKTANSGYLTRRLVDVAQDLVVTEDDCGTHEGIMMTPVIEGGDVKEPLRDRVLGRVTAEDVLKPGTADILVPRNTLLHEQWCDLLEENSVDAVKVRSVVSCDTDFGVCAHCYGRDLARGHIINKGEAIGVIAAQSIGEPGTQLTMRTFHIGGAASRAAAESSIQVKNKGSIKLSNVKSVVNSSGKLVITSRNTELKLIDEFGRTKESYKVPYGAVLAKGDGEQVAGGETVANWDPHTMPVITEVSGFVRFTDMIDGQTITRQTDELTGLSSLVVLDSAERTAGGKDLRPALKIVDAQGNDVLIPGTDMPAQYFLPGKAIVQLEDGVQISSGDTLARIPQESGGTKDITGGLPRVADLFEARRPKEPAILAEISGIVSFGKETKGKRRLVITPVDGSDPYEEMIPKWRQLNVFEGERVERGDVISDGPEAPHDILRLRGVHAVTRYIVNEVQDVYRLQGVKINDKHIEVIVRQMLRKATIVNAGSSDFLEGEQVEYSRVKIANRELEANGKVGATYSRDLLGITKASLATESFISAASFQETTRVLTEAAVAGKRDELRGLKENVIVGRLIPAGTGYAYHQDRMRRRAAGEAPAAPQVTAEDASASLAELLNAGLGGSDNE
E. coli RNA polymerase σ^70 holoenzyme, sequence (P0A800 whole entry, further chain): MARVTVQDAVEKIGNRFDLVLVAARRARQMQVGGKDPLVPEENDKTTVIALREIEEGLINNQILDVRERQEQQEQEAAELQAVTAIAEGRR
E. coli RNA polymerase σ^70 holoenzyme, sequence (P0A8V2 whole entry): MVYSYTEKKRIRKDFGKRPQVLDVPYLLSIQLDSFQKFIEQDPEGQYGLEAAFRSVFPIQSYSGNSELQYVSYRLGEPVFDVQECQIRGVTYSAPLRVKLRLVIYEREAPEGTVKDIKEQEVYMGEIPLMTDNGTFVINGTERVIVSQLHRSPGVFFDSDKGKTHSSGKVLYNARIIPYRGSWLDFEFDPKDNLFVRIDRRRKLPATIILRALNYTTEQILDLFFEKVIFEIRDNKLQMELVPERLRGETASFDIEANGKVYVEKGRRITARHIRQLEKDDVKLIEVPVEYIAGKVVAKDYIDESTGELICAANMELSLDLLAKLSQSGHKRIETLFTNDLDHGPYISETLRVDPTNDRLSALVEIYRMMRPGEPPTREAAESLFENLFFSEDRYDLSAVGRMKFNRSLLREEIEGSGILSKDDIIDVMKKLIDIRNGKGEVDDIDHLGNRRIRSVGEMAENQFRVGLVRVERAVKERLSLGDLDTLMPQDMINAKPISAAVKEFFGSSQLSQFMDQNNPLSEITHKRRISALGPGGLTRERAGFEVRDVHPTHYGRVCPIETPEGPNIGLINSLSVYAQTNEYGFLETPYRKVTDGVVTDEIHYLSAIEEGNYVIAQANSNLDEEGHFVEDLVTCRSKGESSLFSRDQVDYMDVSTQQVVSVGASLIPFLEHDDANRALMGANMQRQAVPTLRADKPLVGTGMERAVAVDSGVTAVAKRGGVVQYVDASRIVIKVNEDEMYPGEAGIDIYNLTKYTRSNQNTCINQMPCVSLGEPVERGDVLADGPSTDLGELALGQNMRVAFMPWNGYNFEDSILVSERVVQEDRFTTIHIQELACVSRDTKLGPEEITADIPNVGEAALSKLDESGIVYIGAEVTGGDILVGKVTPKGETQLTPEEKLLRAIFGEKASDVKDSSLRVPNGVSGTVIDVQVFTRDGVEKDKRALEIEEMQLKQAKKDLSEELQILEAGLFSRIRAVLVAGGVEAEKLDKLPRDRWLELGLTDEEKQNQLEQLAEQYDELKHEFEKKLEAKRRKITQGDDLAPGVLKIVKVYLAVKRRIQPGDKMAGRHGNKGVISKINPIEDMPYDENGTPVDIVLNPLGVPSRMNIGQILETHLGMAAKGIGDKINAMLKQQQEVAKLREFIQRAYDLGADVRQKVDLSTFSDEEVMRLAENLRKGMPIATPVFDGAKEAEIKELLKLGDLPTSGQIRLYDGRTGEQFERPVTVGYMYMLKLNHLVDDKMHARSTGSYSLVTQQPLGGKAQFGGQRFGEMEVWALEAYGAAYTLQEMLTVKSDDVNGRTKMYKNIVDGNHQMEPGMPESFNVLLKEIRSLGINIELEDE
E. coli RNA polymerase σ^70 holoenzyme, sequence (P00579 whole entry, further chain): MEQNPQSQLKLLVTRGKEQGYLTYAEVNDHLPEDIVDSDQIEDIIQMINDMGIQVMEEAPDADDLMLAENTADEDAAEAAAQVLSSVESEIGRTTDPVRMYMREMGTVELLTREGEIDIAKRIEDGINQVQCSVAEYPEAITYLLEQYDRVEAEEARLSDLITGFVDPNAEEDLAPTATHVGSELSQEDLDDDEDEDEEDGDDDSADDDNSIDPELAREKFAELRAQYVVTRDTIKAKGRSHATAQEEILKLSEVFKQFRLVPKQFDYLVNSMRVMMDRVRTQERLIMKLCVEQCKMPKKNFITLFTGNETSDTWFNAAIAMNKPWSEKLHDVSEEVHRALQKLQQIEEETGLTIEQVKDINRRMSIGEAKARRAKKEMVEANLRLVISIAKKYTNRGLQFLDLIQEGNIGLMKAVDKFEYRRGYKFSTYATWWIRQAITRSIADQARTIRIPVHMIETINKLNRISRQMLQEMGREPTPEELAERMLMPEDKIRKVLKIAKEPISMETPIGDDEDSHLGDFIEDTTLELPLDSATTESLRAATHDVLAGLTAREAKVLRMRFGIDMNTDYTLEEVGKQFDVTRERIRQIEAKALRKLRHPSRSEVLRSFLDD
E. coli RNA polymerase σ^70 holoenzyme, sequence (P0A7Z4 whole entry, further chain): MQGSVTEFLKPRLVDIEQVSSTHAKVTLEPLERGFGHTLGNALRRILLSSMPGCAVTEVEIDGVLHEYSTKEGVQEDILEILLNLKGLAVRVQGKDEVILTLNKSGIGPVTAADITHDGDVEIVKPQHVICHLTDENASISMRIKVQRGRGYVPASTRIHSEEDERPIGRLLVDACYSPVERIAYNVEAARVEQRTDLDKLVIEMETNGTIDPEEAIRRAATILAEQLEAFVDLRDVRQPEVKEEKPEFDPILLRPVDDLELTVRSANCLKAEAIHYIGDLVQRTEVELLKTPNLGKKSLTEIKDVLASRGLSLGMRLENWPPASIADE

Structure (SMILES) | MIC [1] | MIC [2] | MIC [3] | pIC50 [4] | MIC [5] | MIC [6] | MIC [7] | MIC [8] | MIC [9] | MIC [10] | MIC [11] | MIC [12] | MIC [13] | MIC [14] | PD50 [15, 20] | pIC50 [16] | pIC50 [17] | PD50 ([15]; oral administration 1 h pre-infection) | MIC [18] | MIC [19]
CCCCc1ccc(C=C(C)C(=O)c2c(O)cc(C(C)CC/C=C/NC(=O)OC)oc2=O)cc1 (mixture of isomers) [APY41, methyl (E)-5-(3-((E/Z)-3-(4-butylphenyl)-2-methylacryloyl)-4-hydroxy-2-oxo-2H-pyran-6-yl)hex-1-enylcarbamate] | < 0.2 µg/mL | 10 µg/mL | 6 µg/mL | 8.10 | 0.8 µg/mL | 2 µg/mL | 6 µg/mL | > 40 µg/mL | 0.6 µg/mL | 3 µg/mL | 30 µg/mL | 0.8 µg/mL | 0.9 µg/mL | 0.6 µg/mL | – | – | – | – | – | –
COC(=O)N/C=C/CCC(C)c1cc(O)c(C(=O)C(C)=Cc2ccc(CC(C)C)s2)c(=O)o1 (mixture of isomers) [APY60, methyl (E)-5-(4-hydroxy-5-((E/Z)-3-(5-isobutylthiophen-2-yl)-2-methylacryloyl)-6-oxo-6H-pyran-2-yl)hex-1-enylcarbamate] | 0.2 µg/mL | 30 µg/mL | 10 µg/mL | 8.00 | 6 µg/mL | 3 µg/mL | 30 µg/mL | 9 µg/mL | 0.5 µg/mL | 10 µg/mL | – | 0.4 µg/mL | 0.7 µg/mL | 0.4 µg/mL | 20 mg/kg | – | – | – | – | –
COC(=O)N/C=C/CCC(C)c1cc(O)c(C(=O)C(C)=Cc2ccc(OC(C)C)cc2)c(=O)o1 (mixture of isomers) [APY66, methyl (E)-5-(4-hydroxy-5-((E/Z)-3-(4-isopropoxyphenyl)-2-methylacryloyl)-6-oxo-6H-pyran-2-yl)hex-1-enylcarbamate] | 0.8 µg/mL | > 50 µg/mL | > 50 µg/mL | 6.00 | 10 µg/mL | 10 µg/mL | > 50 µg/mL | > 40 µg/mL | 2 µg/mL | 6 µg/mL | – | 2 µg/mL | 3 µg/mL | 2 µg/mL | – | – | – | – | – | –
COC(=O)N/C=C/CCC(C)c1cc(O)c(C(=O)C(C)=Cc2ccc(CCC(C)C)cc2)c(=O)o1 (mixture of isomers) [APY73, methyl (E)-5-(4-hydroxy-5-((E/Z)-3-(4-isopentylphenyl)-2-methylacryloyl)-6-oxo-6H-pyran-2-yl)hex-1-enylcarbamate] | 0.3 µg/mL | 50 µg/mL | 10 µg/mL | 7.40 | 3 µg/mL | 2 µg/mL | 50 µg/mL | > 40 µg/mL | 1 µg/mL | – | – | 0.6 µg/mL | 2 µg/mL | 1 µg/mL | – | – | – | – | – | –
COC(=O)N/C=C/CCC(C)c1cc(O)c(C(=O)C(C)=Cc2ccc(CCCC(F)(F)F)s2)c(=O)o1 (mixture of isomers) [APY81, methyl ((1E)-5-(4-hydroxy-3-(2-methyl-3-(5-(4,4,4-trifluorobutyl)thiophen-2-yl)acryloyl)-2-oxo-2H-pyran-6-yl)hex-1-en-1-yl)carbamate] | 0.08 µg/mL | 10 µg/mL | 30 µg/mL | 8.00 | 2 µg/mL | 2 µg/mL | 10 µg/mL | 20 µg/mL | 0.9 µg/mL | 10 µg/mL | – | 0.4 µg/mL | 0.8 µg/mL | 0.5 µg/mL | – | 7.52 | 7.30 | – | – | –
COC(=O)N/C=C/CCCc1cc(O)c(C(=O)C(C)=Cc2ccc(CCCC(F)(F)F)s2)c(=O)o1 (mixture of isomers) [APY90, methyl ((1E)-5-(4-hydroxy-3-(2-methyl-3-(5-(4,4,4-trifluorobutyl)thiophen-2-yl)acryloyl)-2-oxo-2H-pyran-6-yl)pent-1-en-1-yl)carbamate] | 0.07 µg/mL | – | – | 7.52 | – | – | – | 10 µg/mL | 2 µg/mL | 10 µg/mL | – | 0.9 µg/mL | 2 µg/mL | 2 µg/mL | – | 6.10 | 6.52 | – | – | –
COC(=O)N/C=C/CCCc1cc(O)c(C(=O)C(C)=Cc2ccc(CCC(C)C)s2)c(=O)o1 (mixture of isomers) [APY91, methyl ((1E)-5-(4-hydroxy-3-(3-(5-isopentylthiophen-2-yl)-2-methylacryloyl)-2-oxo-2H-pyran-6-yl)pent-1-en-1-yl)carbamate] | 0.08 µg/mL | – | – | 7.70 | – | – | – | 9 µg/mL | 2 µg/mL | 50 µg/mL | – | 0.7 µg/mL | 2 µg/mL | 2 µg/mL | – | 6.22 | 6.40 | – | – | –
COC(=O)N/C=C/CCC(C)c1cc(O)c(C(=O)C(C)=Cc2ccc(CCC3CC3)s2)c(=O)o1 (mixture of isomers) [APY95, methyl ((1E)-5-(3-(3-(5-(2-cyclopropylethyl)thiophen-2-yl)-2-methylacryloyl)-4-hydroxy-2-oxo-2H-pyran-6-yl)hex-1-en-1-yl)carbamate] | 0.1 µg/mL | – | – | 8.30 | – | – | – | 10 µg/mL | 0.4 µg/mL | 10 µg/mL | – | 0.8 µg/mL | 0.5 µg/mL | 0.3 µg/mL | – | – | 7.30 | – | – | –
COC(=O)N/C=C/CCC(C)c1cc(O)c(C(=O)C(C)=Cc2ccc(OC(C)C)s2)c(=O)o1 (mixture of isomers) [APY107, methyl ((1E)-5-(4-hydroxy-3-(3-(5-isopropoxythiophen-2-yl)-2-methylacryloyl)-2-oxo-2H-pyran-6-yl)hex-1-en-1-yl)carbamate] | 0.1 µg/mL | – | – | 7.70 | – | – | – | > 40 µg/mL | 2 µg/mL | 10 µg/mL | – | 2 µg/mL | 2 µg/mL | 2 µg/mL | – | – | 6.40 | – | – | –
CCOCc1ccc(C=C(C)C(=O)c2c(O)cc(C(C)CC/C=C/NC(=O)OC)oc2=O)s1 (mixture of isomers) [APY108, methyl ((1E)-5-(3-(3-(5-(ethoxymethyl)thiophen-2-yl)-2-methylacryloyl)-4-hydroxy-2-oxo-2H-pyran-6-yl)hex-1-en-1-yl)carbamate] | 0.4 µg/mL | – | – | 6.52 | – | – | – | > 40 µg/mL | 20 µg/mL | 30 µg/mL | – | 10 µg/mL | 20 µg/mL | 20 µg/mL | – | – | 6.15 | – | – | –
CCCOCc1ccc(C=C(C)C(=O)c2c(O)cc(C(C)CC/C=C/NC(=O)OC)oc2=O)s1 (mixture of isomers) [APY109, methyl ((1E)-5-(4-hydroxy-3-(2-methyl-3-(5-(propoxymethyl)thiophen-2-yl)acryloyl)-2-oxo-2H-pyran-6-yl)hex-1-en-1-yl)carbamate] | 0.2 µg/mL | – | – | 7.10 | – | – | – | > 40 µg/mL | 7 µg/mL | 30 µg/mL | – | 3 µg/mL | 7 µg/mL | 7 µg/mL | – | – | 6.10 | – | – | –
COC(=O)N/C=C/CCC(C)c1cc(O)c(C(=O)C(C)=Cc2ccc(OCC(F)(F)F)s2)c(=O)o1 (mixture of isomers) [APY116, methyl ((1E)-5-(4-hydroxy-3-(2-methyl-3-(5-(2,2,2-trifluoroethoxy)thiophen-2-yl)acryloyl)-2-oxo-2H-pyran-6-yl)hex-1-en-1-yl)carbamate] | 0.2 µg/mL | – | – | 7.52 | – | – | – | > 40 µg/mL | 2 µg/mL | 6 µg/mL | – | 1 µg/mL | 2 µg/mL | 2 µg/mL | 20 mg/kg | – | – | 50 mg/kg | 0.8 µg/mL | 0.7 µg/mL
